Source: ChEMBL document CHEMBL1135015, “Silanediol-based inhibitor of thermolysin” (Bioorg Med Chem Lett, 2002)

Target: T1, Thermolysin (Bacillus thermoproteolyticus, UniProt P00800)
T1 sequence (P00800 whole entry): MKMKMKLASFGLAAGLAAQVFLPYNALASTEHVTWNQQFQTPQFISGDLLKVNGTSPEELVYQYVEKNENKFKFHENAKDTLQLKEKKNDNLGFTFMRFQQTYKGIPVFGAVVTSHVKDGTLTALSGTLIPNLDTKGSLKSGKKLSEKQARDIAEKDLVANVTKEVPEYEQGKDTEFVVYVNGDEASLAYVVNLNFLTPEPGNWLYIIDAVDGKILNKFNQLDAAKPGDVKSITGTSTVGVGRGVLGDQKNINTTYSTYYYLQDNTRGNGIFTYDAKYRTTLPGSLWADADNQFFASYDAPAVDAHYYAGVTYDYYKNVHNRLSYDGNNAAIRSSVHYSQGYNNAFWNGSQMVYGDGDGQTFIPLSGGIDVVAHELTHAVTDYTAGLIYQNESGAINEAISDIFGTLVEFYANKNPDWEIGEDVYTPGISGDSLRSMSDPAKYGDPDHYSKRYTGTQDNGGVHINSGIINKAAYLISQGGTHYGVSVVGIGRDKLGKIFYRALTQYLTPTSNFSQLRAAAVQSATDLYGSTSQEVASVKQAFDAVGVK
Experiment: Competitive inhibition of thermolysin evaluated using the substrate FAGLA (Sigma); Competitive binding observed

Row | Ki [nM] | SMILES
1 | 41 | CC(C)C[C@@H](CO)C[Si](CN)(c1ccccc1)c1ccccc1
2 | 41 | CC(C)C[C@H](C[Si](O)(O)CNC(=O)CCc1ccccc1)C(=O)N[C@@H](CC(C)C)C(=O)O
3 | 11 | CC(C)C[C@H](CP(=O)(O)CNC(=O)OCc1ccccc1)C(=O)N[C@@H](CC(C)C)C(=O)O
